Assay results published in patent publication US9801960B2, “Probe for a biological specimen and labelling method and screening method using the probe” (CANON KABUSHIKI KAISHA, priority 2008, dated 2017).

Tests used:
[1] = Excitation and fluorescence emission wavelength measurement; type: physicochemical; parameters: Stokes shift (λem − λex): unit not given here; conditions: aqueous solution: 10 mg/mL solution in DMSO diluted 500-fold with purified water
Method: It should be noted that the excitation wavelength and the fluorescence emission wavelength of the staining compound were determined by measuring an aqueous solution, which had been obtained by diluting 500-fold a 10 mg/mL solution of the staining compound in DMSO with purified water, with a fluorescence spectrophotometer FL 4500 manufactured by Hitachi High-Technologies Corporation.

[2] = Storage stability of staining compound solution in DMSO; type: physicochemical; conditions: 10 ng/mL in DMSO, closed glass container, normal temperature, 1 month; rate of change of absorbance and fluorescence intensity
Method in brief: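 Compounds held as 10 ng/mL DMSO solutions in closed glass containers at normal temperature for 1 month. Rates of change in absorbance and fluorescence intensity at a given wavelength versus start were scored: +++ <5%, ++ 5–15%, − >15%.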

Zebrafish juveniles = experiment: In vivo labelling of Zebrafish juveniles with probe for biological specimen; parameters: key to Staining property: +++: stained; −: no stained; key to Fluorescence sensitivity: +++: strongly observed; ++: moderately observed; +: weakly observed; −: no stained; conditions: 1 hour; for Site(s) to be labelled: 10 ng/mL in water, stereoscopic microscope; for Fluorescence sensitivity / Staining property: 10 ng/mL; for Fluorescence sensitivity: fluorescence intensity visually evaluated; for Staining property: visually evaluated
Method in brief: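 Five zebrafish juveniles were immersed in distilled water containing staining compound at 10 ng/mL (DMSO solution) for 1 hour. They were then washed three times with Egg Water, immobilised in 3% methylcellulose and imaged by stereomicroscope. Staining and fluorescence intensity were scored visually on a +++ to − scale.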

| Structure (SMILES) | Excitation wavelength λex [1] | Fluorescence emission wavelength λem [1] | Stokes shift (λem − λex) [1] | Storage stability [2] | Site(s) to be labelled (Zebrafish juveniles) | Fluorescence sensitivity (Zebrafish juveniles) | Staining property (Zebrafish juveniles) |
| --- | --- | --- | --- | --- | --- | --- | --- |
| CCN1c2ccc(/C=C3/SC(=S)N(CCC(=O)O)C3=O)cc2C2CCCC21 (stereo not shown) [Dye 123] | 564 nm | 651 nm | 87 | +++ (rates of change of the absorbance and the fluorescence intensity are less than 5%, and thus, the storage stability is highly excellent) | gallbladder and gastrointestinal tract | +++ | +++ |
| CCN1c2ccc(/C=C/c3sc4ccccc4[n+]3CC(=O)O)cc2C2CCCC21 (stereo not shown) [Dye 124] | 605 nm | 618 nm | 13 | +++ (rates of change of the absorbance and the fluorescence intensity are less than 5%, and thus, the storage stability is highly excellent) | nose | +++ | +++ |
| COc1ccc(N2c3ccc(/C=C4/SC(=S)N(CCC(=O)O)C4=O)cc3C3CCCC32)cc1 (stereo not shown) [Dye 127] | 564 nm | 651 nm | 87 | +++ (rates of change of the absorbance and the fluorescence intensity are less than 5%, and thus, the storage stability is highly excellent) | blood vessel, liver, and gastrointestinal tract | +++ | +++ |
| COc1ccc(N2c3ccc(/C=C4\C(=O)N(c5ccccc5)N=C4C(=O)O)cc3C3CCCC32)cc1 (stereo not shown) [Dye 128] | 530 nm | 690 nm | 160 | +++ (rates of change of the absorbance and the fluorescence intensity are less than 5%, and thus, the storage stability is highly excellent) | blood vessel, liver, and gastrointestinal tract | ++ | +++ |
| O=C(O)CCN1C(=O)/C(=C\c2ccc3c(c2)C2CCCC2N3c2ccccc2)SC1=S (stereo not shown) [Dye 129] | 522 nm | 611 nm | 89 | +++ (rates of change of the absorbance and the fluorescence intensity are less than 5%, and thus, the storage stability is highly excellent) | blood vessel, gallbladder, and gastrointestinal | +++ | +++ |
| O=C(O)CCN1C(=O)/C(=C\c2ccc3c(c2)C2CCCC2N3c2ccccc2)SC1=S (stereo not shown) [Dye 130] | 541 nm | 619 nm | 78 | +++ (rates of change of the absorbance and the fluorescence intensity are less than 5%, and thus, the storage stability is highly excellent) | blood vessel, liver, and gastrointestinal tract | +++ | +++ |
| COc1ccc(N2c3ccc(/C=C(/C#N)C(=O)O)cc3C3CCCC32)cc1 (stereo not shown) [Dye 131] | 440 nm | 580 nm | 140 | +++ (rates of change of the absorbance and the fluorescence intensity are less than 5%, and thus, the storage stability is highly excellent) | liver and gastrointestinal tract | +++ | +++ |
| C=CCN1C(=O)/C(=c2\s/c(=C/c3ccc4c(c3)C3CCCC3N4c3ccc(OC)cc3)c(=O)n2CC(=O)O)SC1=S (stereo not shown) [Dye 132] | 530 nm | 680 nm | 150 | +++ (rates of change of the absorbance and the fluorescence intensity are less than 5%, and thus, the storage stability is highly excellent) | blood vessel | +++ | +++ |
| C=CCN1C(=O)/C(=c2\s/c(=C/c3ccc4c(c3)C3CCCC3N4c3ccccc3)c(=O)n2CC(=O)O)SC1=S (stereo not shown) [Dye 133] | 510 nm | 690 nm | 180 | +++ (rates of change of the absorbance and the fluorescence intensity are less than 5%, and thus, the storage stability is highly excellent) | blood vessel | +++ | +++ |
| CSc1ccc(N2c3ccc(/C=C(/C#N)C(=O)O)cc3C3CCCC32)cc1 (stereo not shown) [Dye 134] | 440 nm | 600 nm | 160 | +++ (rates of change of the absorbance and the fluorescence intensity are less than 5%, and thus, the storage stability is highly excellent) | blood vessel | +++ | +++ |
| CSc1ccc(N2c3ccc(/C=C(/C#N)C(=O)O)cc3C3CCCC32)cc1 (stereo not shown) [Dye 135] | 430 nm | 600 nm | 170 | +++ (rates of change of the absorbance and the fluorescence intensity are less than 5%, and thus, the storage stability is highly excellent) | blood vessel | +++ | +++ |
| C[n+]1c(/C=c2\s/c(=C/c3ccc4c(c3)C3CCCC3N4c3ccc(C=C(c4ccccc4)c4ccccc4)cc3)c(=O)n2CC(=O)O)sc2ccccc21 (stereo not shown) [Dye 136] | 560 nm | 760 nm | 200 | +++ (rates of change of the absorbance and the fluorescence intensity are less than 5%, and thus, the storage stability is highly excellent) | gastrointestinal tract | +++ | +++ |
| CCn1c(=O)/c(=C\c2ccc3c(c2)C2CCCC2N3c2ccccc2)s/c1=C1/SC(=S)N(CC(=O)O)C1=O (stereo not shown) [Dye 137] | 590 nm | 700 nm | 110 | +++ (rates of change of the absorbance and the fluorescence intensity are less than 5%, and thus, the storage stability is highly excellent) | gallbladder and gastrointestinal tract | +++ | +++ |
| CCN1C(=O)/C(=c2\s/c(=C/c3ccc4c(c3)C3CCCC3N4c3cccc(SC)c3)c(=O)n2CC(=O)O)SC1=S (stereo not shown) [Dye 138] | 540 nm | 690 nm | 150 | +++ (rates of change of the absorbance and the fluorescence intensity are less than 5%, and thus, the storage stability is highly excellent) | gastrointestinal tract | +++ | +++ |
| CC[N+]1=C(C=c2s/c(=C/c3ccc4c(c3)C3CCCC3N4c3ccccc3)c(=O)n2CC(=O)O)C(C)(C)c2ccccc21 (stereo not shown) [Dye 139] | 570 nm | 640 nm | 70 | +++ (rates of change of the absorbance and the fluorescence intensity are less than 5%, and thus, the storage stability is highly excellent) | nose | +++ | +++ |
| O=C(O)CN1C(=O)/C(=C2C=C/C(=C\c3ccc4c(c3)C3CCCC3N4c3ccccc3)C\2)SC1=S (stereo not shown) [Dye 140] | 510 nm | 650 nm | 140 | +++ (rates of change of the absorbance and the fluorescence intensity are less than 5%, and thus, the storage stability is highly excellent) | gastrointestinal tract | +++ | +++ |
| O=C1/C(=C/c2ccc3c(c2)C2CCCC2N3c2ccccc2)Oc2ccc(I)cc21 (stereo not shown) [Dye 141] | 380 nm | 490 nm | 110 | +++ (rates of change of the absorbance and the fluorescence intensity are less than 5%, and thus, the storage stability is highly excellent) | gastrointestinal tract | +++ | +++ |
| COc1ccc(N2c3ccc(/C=C4\Oc5ccc(I)cc5C4=O)cc3C3CCCC32)cc1 (stereo not shown) [Dye 142] | 530 nm | 680 nm | 150 | +++ (rates of change of the absorbance and the fluorescence intensity are less than 5%, and thus, the storage stability is highly excellent) | gastrointestinal tract | +++ | +++ |
| CC1(C)C(/C=C/C=C/C=C/C=C2\N(CCCCS(=O)(=O)O)c3ccc4ccccc4c3C2(C)C)=[N+](CCCCS(=O)(=O)[O-])c2ccc3ccccc3c21 [ICG, indocyanine green, reference compound] | 784 nm | 811 nm | 27 | − (rates of change of the absorbance and fluorescence intensity are more than 15%, and thus, the storage stability is poor) | liver | + | +++ |
